This is an account of results in paper PMC7997574, “Lead Optimization of Benzoxazolone Carboxamides as Orally Bioavailable and CNS Penetrant Acid Ceramidase Inhibitors” (Journal of Medicinal Chemistry, 2020).

Where a name gives a salt, the structure may show the parent alone. Read-outs that look alike come from different tables or passages of the source.

Series [1] in a line: Aqueous kinetic solubility assay. It counts as physicochemical. To be noted: PBS, pH 7.4. The protocol: The aqueous kinetic solubility was determined from a 10 mM MeCN stock solution of test compound in Phosphate-Buffered Saline (PBS) at pH 7.4. The study was performed by incubation of an aliquot of 10 mM MeCN stock solution in PBS (pH 7.4) at a target concentration of 250 μM. The incubation was carried out under shaking at 25 °C for 1 h followed by centrifugation at 21100 × g for 30 min. The supernatant was analyzed by UPLC/MS for the quantification of the dissolved compound (in μM) by UV at a specific wavelength (215 nm). […] The UPLC/MS analyses were performed on a Waters ACQUITY UPLC/MS system consisting of a single quadrupole detector (SQD) Mass Spectrometer (MS) equipped with an Electrospray Ionization (ESI) interface and a Photodiode Array Detector (PDA). The PDA range was 210–400 nm. ESI in positive mode was used in the mass scan range of 100–650 Da. The analyses were run on an ACQUITY UPLC BEH C18 column (50 × 2.1 mm ID, particle size 1.7 μm) with a VanGuard BEH C18 precolumn (5 × 2.1 mm ID, particle size 1.7 μm), using 10 mM NH4OAc in H2O at pH 5 adjusted with AcOH (A) and 10 mM NH4OAc in MeCN/H2O (95:5) at pH 5 (B) as the mobile phase. Values are reported as mean values of ≥2 experiments performed.

Series [2] is described as follows: In vitro plasma stability study. As to conditions: mouse plasma; read-out: m-plasma t1/2. It counts as in vitro ADME. As to the method: Freshly prepared 10 mM MeCN stock solution of test compound was diluted 50-fold with DMSO/H2O (1:1) and incubated at 37 °C for 2 h with mouse plasma added in 5% DMSO (preheated at 37 °C for 10 min). The final concentration was 2 μM. At each time point (0, 5, 15, 30, 60, and 120 min), 50 μL of incubation mixture was diluted with 200 μL of cold MeCN spiked with 200 nM internal standard followed by centrifugation at 3300 × g for 20 min. The supernatant was further diluted with H2O (1:1) for analysis. The concentration of test compound was quantified by LC/MS/MS on a Waters ACQUITY UPLC/MS TQD system consisting of a TQD MS equipped with an ESI interface. The analyses were run on an ACQUITY UPLC BEH C18 (50 × 2.1 mm ID, particle size 1.7 μm) with a VanGuard BEH C18 precolumn (5 × 2.1 mm ID, particle size 1.7 μm) at 40 °C. For each compound, the appropriate mobile phase was chosen. ESI was applied in positive mode. The response factors, calculated on the basis of the internal standard peak area, were plotted over time. When possible, response vs time profiles were fitted with Prism (GraphPad Software, Inc., USA) to estimate compound t1/2 in plasma. Values are the mean of at least two independent experiments performed in two technical replicates.

A short description of series [3]: In vitro microsomal stability study. In kind it is in vitro ADME. As to conditions: pH 7.4; mouse liver microsomes; read-out: m-LM t1/2. The protocol: Freshly prepared 10 mM MeCN stock solution of test compound was preincubated at 37 °C for 15 min with mouse liver microsomes added in 0.1 M Tris HCl buffer (pH 7.4). The final concentration was 4.6 μM. After preincubation, the cofactors (NADPH, G6P, G6PDH, and MgCl2 predissolved in 0.1 M Tris HCl) were added to the incubation mixture, and the incubation was continued at 37 °C for 1 h. At each time point (0, 5, 15, 30, and 60 min), 30 μL of incubation mixture was diluted with 200 μL of cold MeCN spiked with 200 nM internal standard followed by centrifugation at 3300 × g for 15 min. The supernatant was further diluted with H2O (1:1) for analysis. The concentration of the test compound was quantified by LC/MS/MS on a Waters ACQUITY UPLC/MS TQD system consisting of a TQD MS equipped with an ESI interface. The analyses were run on an ACQUITY UPLC BEH C18 (50 × 2.1 mm ID, particle size 1.7 μm) with a VanGuard BEH C18 precolumn (5 × 2.1 mm ID, particle size 1.7 μm) at 40 °C. For each compound, the appropriate mobile phase was chosen. ESI was applied in positive mode. The percentage of test compound remaining at each time point relative to t = 0 was calculated. t1/2 was determined by a one-phase decay equation using a nonlinear regression of compound concentration vs time. Values are the mean of at least two independent experiments performed in two technical replicates.

For another series, the target named is T1, AC (Homo sapiens, UniProt Q13510).
T1 sequence (Q13510 22-395): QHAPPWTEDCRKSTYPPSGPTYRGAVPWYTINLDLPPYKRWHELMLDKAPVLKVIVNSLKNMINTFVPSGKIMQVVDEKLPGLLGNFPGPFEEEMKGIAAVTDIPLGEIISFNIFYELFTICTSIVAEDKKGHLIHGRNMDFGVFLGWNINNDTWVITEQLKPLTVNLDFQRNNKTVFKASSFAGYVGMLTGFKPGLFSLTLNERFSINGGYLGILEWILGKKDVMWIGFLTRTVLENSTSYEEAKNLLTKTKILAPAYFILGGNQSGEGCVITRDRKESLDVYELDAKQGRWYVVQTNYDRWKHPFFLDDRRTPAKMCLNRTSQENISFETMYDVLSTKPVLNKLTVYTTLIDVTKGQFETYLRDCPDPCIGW
As to the kind of experiment: Fluorogenic hAC assay on hAC-enriched lysate of HEK293 cells. In kind it is biochemical. Also noted: expressed in transfected cells. As to the method: HEK293 cells stably expressing hAC were grown in Dulbecco’s modified Eagle medium (DMEM) containing 10% FBS, 1% glutamine, 1 mM sodium pyruvate, and 500 μg mL^–1 G418. Cells were harvested, and pellets were stored at −80 °C until lysosomal-enriched lysate preparation. Cells were suspended in 20 mM Tris HCl (pH 7.5) with 0.32 M sucrose, sonicated, and centrifuged at 800 × g for 30 min at 4 °C. Supernatants were then centrifuged at 12000 × g for 30 min at 4 °C. Pellets were resuspended in PBS (pH 7.4) and subjected to three freeze–thaw cycles at −80 °C. The suspension was finally centrifuged at 105000 × g for 1 h at 4 °C, and protein concentration was measured in the supernatant with the bicinchoninic acid based protein assay. This hAC-enriched preparation allowed us to further optimize the enzymatic assay and to use small amounts of lysate (2 μg per well) at a 5 μM substrate (Rbm14–12) around its KM (KM = 5.0 μM).
The assay was performed in Optiplate 96-well black plates, with each reaction well containing a mixture of 25 mM NaOAc buffer (pH 4.5) and a fixed amount of protein (2 μg) in a volume of 85 μL. After 10 min of preincubation with test compounds (diluted 20× from DMSO stock solutions at different concentrations), the fluorogenic probe was added (diluted 40× from EtOH stock solution, final concentration 5 μM). After 3 h of incubation at 37 °C, reactions were stopped with 50 μL of MeOH and 100 μL of a 2.5 mg mL^–1 NaIO4 fresh solution in 100 mM glycine/NaOH buffer (pH 10.6). The plates were further incubated for 2 h at 37 °C in the dark, and fluorescence intensities were measured at excitation/emission wavelengths of 355/460 nm. Negative control samples consisted of the same incubation mixture in the absence of protein-enriched extracts. Data were plotted as a function of compound concentrations. IC50 values were calculated by nonlinear regression analysis using GraphPad Prism 5 (GraphPad Software Inc., CA, USA) applying a standard slope curve fitting. The reported IC50 values are the mean of at least three independent experiments performed in three technical replicates.

Setting [4] is: hAC expressed in HEK-293 cells, read-out: hAC IC50 (μM)±SD.
Where [5] appears, read: supplementary csv, read-out: hAC, IC50.

As a reminder, the solubility is the concentration that dissolves in the medium under given conditions. Low values mean little dissolved substance, high ones much dissolved substance. One may read the IC50 as the concentration that inhibits the measured activity by half. For `CCN1CCN(c2ccc3c(c2)oc(=O)n3C(=O)NCCCCc2ccccc2)CC1` [23g, 6-(4-Ethylpiperazin-1-yl)-2-oxo-N-(4-phenylbutyl)-1,3-benzoxazole-3-carboxamide], in series [1], the solubility at 1 h is less than 1 µM. In addition, in series [2], the half-life at 2 μM was less than 5 min. The half-life at 4.6 μM in series [3] is less than 5 min. For the same compound, on AC (setting [4]), the IC50 was 0.056 ± 0.006 µM. Moreover, the “fold more potent than 23e (hAC)” value on AC (vs 23e hAC IC50 = 0.363 μM) is roughly 7 fold.

As for `O=C(NCCCCc1ccccc1)n1c2c(oc1=O)CCN(Cc1ccccc1)C2` [12d, 5-Benzyl-2-oxo-N-(4-phenylbutyl)-6,7-dihydro-4H-oxazolo[4,5-c]pyridine-3-carboxamide], on AC (setting [5]), the IC50 worked out at 0.436 ± 0.073 µM.

Take `CC(C)N1CCN(c2ccc3c(c2)oc(=O)n3C(=O)NCCCCc2ccccc2)CC1` [23h, 6-(4-Isopropylpiperazin-1-yl)-2-oxo-N-(4-phenylbutyl)-1,3-benzoxazole-3-carboxamide]: the IC50 at AC (setting [4]) amounted to 0.211 ± 0.065 µM.

As for `CC(=O)N1CCc2oc(=O)n(C(=O)NCCCCc3ccccc3)c2C1` [12e, 5-Acetyl-2-oxo-N-(4-phenylbutyl)-6,7-dihydro-4H-oxazolo[4,5-c]pyridine-3-carboxamide], the IC50 at AC (setting [5]) turned out to be 0.293 ± 0.107 µM.

For the compound `O=C(NCCCCc1ccccc1)n1c(=O)oc2cc(N3CCCCC3)ccc21` [23a, 2-Oxo-N-(4-phenylbutyl)-6-piperidin-1-ium-1-yl-1,3-benzoxazole-3-carboxamide Hydrochloride], the IC50 at AC (setting [4]) was 0.08 ± 0.017 µM.

`O=C(NCCCCc1ccccc1)n1c(=O)oc2cc(N3CCOCC3)ccc21` [23b, 6-Morpholino-2-oxo-N-(4-phenylbutyl)-1,3-benzoxazole-3-carboxamide]: the IC50 at AC (setting [4]) stood at 0.192 ± 0.087 µM.

For `O=C(NCCOCc1ccccc1)n1c(=O)oc2cc(-c3ccc(F)cc3)ccc21` [2d, N-(2-Benzyloxyethyl)-6-(4-fluorophenyl)-2-oxo-1,3-benzoxazole-3-carboxamide], the IC50 at AC (setting [5]) was 4.7 ± 6.04 µM.

Regarding `O=C(NCCCCc1ccccc1)n1c(=O)oc2cc(C3CCOCC3)ccc21` [22b, 2-Oxo-N-(4-phenylbutyl)-6-tetrahydropyran-4-yl-1,3-benzoxazole-3-carboxamide], the IC50 at AC (setting [4]) stood at 0.068 ± 0.022 µM.

For the compound `O=C(NCCCCc1ccccc1)n1c(=O)oc2cc(N3CCS(=O)(=O)CC3)ccc21` [23c, 6-(1,1-Dioxo-1,4-thiazinan-4-yl)-2-oxo-N-(4-phenylbutyl)-1,3-benzoxazole-3-carboxamide], the IC50 at AC (setting [4]) is 0.16 ± 0.014 µM.

As for `CCOCCNC(=O)n1c(=O)oc2cc(-c3ccc(F)cc3)ccc21` [2f, N-(2-Ethoxyethyl)-6-(4-fluorophenyl)-2-oxo-1,3-benzoxazole-3-carboxamide], at AC (setting [5]), the IC50 amounted to 2.3 µM.

With `O=C1Cc2ccccc2N1C(=O)NCCCCc1ccccc1` [8d, 2-Oxo-N-(4-phenylbutyl)indoline-1-carboxamide], at AC (setting [4]), the IC50 was greater than 10 µM.

In the case of `O=C1C(=O)N(C(=O)NCCCCc2ccccc2)c2ccccc21` [8c, 2,3-Dioxo-N-(4-phenylbutyl)indoline-1-carboxamide], at AC (setting [4]), the IC50 was greater than 10 µM.

For `CN1CCc2oc(=O)n(C(=O)NCCCCc3ccccc3)c2C1` [12c, 5-Methyl-2-oxo-N-(4-phenylbutyl)-6,7-dihydro-4H-oxazolo[4,5-c]pyridine-3-carboxamide Hydrochloride], the IC50 on AC (setting [5]) was determined as 0.516 ± 0.165 µM.

`CCCCCNC(=O)n1c(=O)oc2cc(-c3ccc(F)cc3)ccc21` [2e, 6-(4-Fluorophenyl)-2-oxo-N-pentyl-1,3-benzoxazole-3-carboxamide] had a solubility at 1 h in series [1] of less than 1 µM. Further, at AC (read-out: hAC IC50), the IC50 stood at 0.06 µM.

Take `O=C(NCCCCc1ccccc1)n1c(=O)oc2cc(C3CCCCC3)ccc21` [22a, 6-Cyclohexyl-2-oxo-N-(4-phenylbutyl)-1,3-benzoxazole-3-carboxamide]: the IC50 at AC (setting [4]) is 0.089 ± 0.054 µM.

With `CN1CCC(c2ccc3[nH]c(=O)oc3c2)CC1` [21g, 6-(1-Methyl-4-piperidyl)-3H-1,3-benzoxazol-2-one], at AC (tested at 1 and 10 μM), the “inhibition of hAC” value is “not able to inhibit hAC”.

As to `CC(C)CN1CCN(c2ccc3c(c2)oc(=O)n3C(=O)NCCCCc2ccccc2)CC1` [23i, 6-(4-Isobutylpiperazin-1-Yl)-2-oxo-N-(4-phenylbutyl)-1,3-benzoxazole-3-carboxamide], the IC50 on AC (setting [4]) was 0.127 ± 0.037 µM.

On to `CCC(C)NC(=O)n1c(=O)oc2cc(C3CCN(C)CC3)ccc21` (stereo not shown) [22n, 6-(1-Methyl-4-piperidyl)-2-oxo-N-sec-butyl-1,3-benzoxazole-3-carboxamide], for which the IC50 at AC (setting [4]) came to 2.1 µM.

With `COCCCNC(=O)n1c(=O)oc2cc(-c3ccc(F)cc3)ccc21` [2g, 6-(4-Fluorophenyl)-N-(3-methoxypropyl)-2-oxo-1,3-benzoxazole-3-carboxamide], the IC50 at AC (setting [5]) was 2.6 ± 0.176 µM.

With `CCOCCNC(=O)n1c(=O)oc2cc(C3CCN(C)CC3)ccc21` [22l, N-(2-Ethoxyethyl)-6-(1-methyl-4-piperidyl)-2-oxo-1,3-benzoxazole-3-carboxamide], on AC (setting [4]), the IC50 came to 1.05 ± 0.312 µM.
